Experimental data published in patent publication US12624018B1, “Inhibitors of RIPK2 and medical uses thereof” (Odyssey Therapeutics, Inc., priority 2022, dated 2026).

Biological target: T1, RIPK2 enzyme (Homo sapiens, UniProt O43353)
T1 construct: purchased Carna 09-128
Assay: RIPK2 inhibition (ADP-Glo Kinase Assay)
Type: biochemical
Details: RIPK2 5 nM, ATP 150 μM, MBP substrate, read-out: RIPK2 IC50
Procedure, shortened: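 Human RIPK2 (5 nM) preincubated with compound 30 min at room temperature in 50 mM HEPES pH 7.5, 10 mM MgCl2, 2 mM DTT, 1 mM EGTA, 0.01% Brij-35, 0.05% BSA; native swine MBP as substrate. ADP formed quantified by ADP-Glo luminescence; percent inhibition relative to DMSO and no-enzyme controls.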

T1 sequence (O43353 1-299 limits assumed): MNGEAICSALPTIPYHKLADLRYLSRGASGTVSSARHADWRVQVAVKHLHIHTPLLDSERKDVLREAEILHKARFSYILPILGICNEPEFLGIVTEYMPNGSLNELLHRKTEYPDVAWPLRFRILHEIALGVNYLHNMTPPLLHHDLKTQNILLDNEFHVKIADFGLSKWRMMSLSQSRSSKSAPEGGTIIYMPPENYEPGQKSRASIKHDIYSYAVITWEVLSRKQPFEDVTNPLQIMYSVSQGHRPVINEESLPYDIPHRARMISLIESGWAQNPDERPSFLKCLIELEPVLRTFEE

| Structure (SMILES) | IC50 |
| --- | --- |
| [2H]C([2H])([2H])c1cc(CC(=O)Nc2cnn(C(C)(C)C)c2)ccc1Oc1ccnc2ccc(OC3CCN(C)CC3)cc12 [Compound 105, N-(1-(tert-butyl)-1H-pyrazol-4-yl)-2-(3-(methyl-d3)-4-((6-((1-methyl-piperidin-4-yl)oxy)quinolin-4-yl)oxy)phenyl) acetamide] | < 2.5 nM |
| Cc1cc(CC(=O)Nc2cc(C3CC3)n(C)n2)ccc1Oc1ccnc2ccc(S(C)(=O)=O)cc12 [Compound 235, N-(5-cyclopropyl-1-methyl-1H-pyrazol-3-yl)-2-(3-methyl-4-((6-(methylsulfonyl)quinolin-4-yl)oxy)phenyl)acetamide] | < 2.5 nM |
| CC(C)(C)n1cc(NC(=O)Cc2ccc(Oc3ccnc4ccc(P(C)(C)=O)cc34)cc2F)cn1 [Compound 36, N-(1-(tert-butyl)-1H-pyrazol-4-yl)-2-(4-((6-(dimethylphosphoryl)quinolin-4-yl)oxy)-2-fluorophenyl)acetamide] | 4.7 nM |
| CC(C)(C)n1cc(NC(=O)Cc2ncc(Oc3ncnc4ccc(O[C@@H]5CCOC5)cc34)cc2F)cn1 [Compound 63, (R)-N-(1-(tert-butyl)-1H-pyrazol-4-yl)-2-(3-fluoro-5-((6-((tetrahydrofuran-3-yl)oxy)quinazolin-4-yl)oxy)pyridin-2-yl)acetamide] | 37.3 nM |
| Cc1cc(CC(=O)Nc2cnn(C(C)(C)C)c2)ccc1Oc1ccnc2ccc(-c3ccc[nH]c3=O)cc12 [Compound 245, N-(1-(tert-butyl)-1H-pyrazol-4-yl)-2-(3-methyl-4-((6-(2-oxo-1,2-dihydropyridin-3-yl)quinolin-4-yl)oxy)phenyl)acetamide] | < 2.5 nM |

Second part, the compound after the results:

| IC50 | Structure (SMILES) |
| --- | --- |
| < 2.5 nM | Cc1cc(CC(=O)Nc2cnn(C(C)(C)C)c2)ccc1Oc1ccnc2ccc([S+](C)[O-])cc12 (single isomer, unassigned) [Compound 322, N-(1-(tert-butyl)-1H-pyrazol-4-yl)-2-(3-methyl-4-((6-(methylsulfinyl)quinolin-4-yl)oxy)phenyl)acetamide] |
| < 2.5 nM | Cc1cc(CC(=O)Nc2cnn(C(C)(C)C)c2)c(F)cc1Oc1ccnc2ccc(-c3ncnn3C)cc12 [Compound 428, N-(1-(tert-butyl)-1H-pyrazol-4-yl)-2-(2-fluoro-5-methyl-4-((6-(1-methyl-1H-1,2,4-triazol-5-yl)quinolin-4-yl)oxy)phenyl)acetamide] |
| < 2.5 nM | Cc1c(Oc2ccnc3ccc([S+](C)[O-])cc23)ccc(CC(=O)Nc2cnn(C(C)(C)C)c2)c1F (single isomer, unassigned) [Compound 323, N-(1-(tert-butyl)-1H-pyrazol-4-yl)-2-(2-fluoro-3-methyl-4-((6-(methylsulfinyl)quinolin-4-yl)oxy)phenyl)acetamide] |
| 3.5 nM | Cc1cc(CC(=O)Nc2cnn(C(C)(C)C)c2)c(F)cc1Oc1ncnc2cc(F)c(C(N)=O)cc12 [Compound 438, 4-(4-(2-((1-(tert-butyl)-1H-pyrazol-4-yl)amino)-2-oxoethyl)-5-fluoro-2-methylphenoxy)-7-fluoroquinazoline-6-carboxamide] |
| < 2.5 nM | Cc1c(Oc2ccnc3ccc(S(=O)(=O)C4CNC4)cc23)ccc(CC(=O)Nc2cnn(C(C)(C)C)c2)c1F [Compound 315, 2-(4-((6-(azetidin-3-ylsulfonyl)quinolin-4-yl)oxy)-2-fluoro-3-methylphenyl)-N-(1-(tert-butyl)-1H-pyrazol-4-yl)acetamide] |
| < 2.5 nM | Cc1cc(CC(=O)Nc2cnn(C(C)(C)C)c2)c(F)cc1Oc1ccnc2ccc(S(=O)(=O)C3CCNCC3)cc12 [Compound 313, N-(1-(tert-butyl)-1H-pyrazol-4-yl)-2-(2-fluoro-5-methyl-4-((6-(piperidin-4-ylsulfonyl)quinolin-4-yl)oxy)phenyl)acetamide] |
| < 2.5 nM | Cc1c(Oc2ccnc3ccc(C(=O)N4CC(F)C4)cc23)ccc(CC(=O)Nc2cnn(C(C)(C)C)c2)c1F [Compound 345, N-(1-(tert-butyl)-1H-pyrazol-4-yl)-2-(2-fluoro-4-((6-(3-fluoro-azetidine-1-carbonyl)quinolin-4-yl)oxy)-3-methylphenyl) acetamide] |
